Measured values from ChEMBL document CHEMBL6153091, “Cytotoxic Stilbenoids, Hetero- and Homodimers of Homoisoflavonoids from Prospero autumnale” (J Nat Prod, 2025).
Activity calls are given as the source filed them.

Assays:
Format in all cases: functional, cell-based
LoVo [1] = experiment: Induction of cell cycle arrest in human LoVo cells assessed as accumulation of cells at G0/G1 phase incubated for 48 hrs by flow cytometry
HCT-116 [2] = experiment: Induction of cell cycle arrest in human HCT-116 cells assessed as accumulation of cells at G0/G1 phase incubated for 48 hrs by flow cytometry
HepG2 [3] = experiment: Induction of necrosis in human HepG2 cells at IC50 concentration incubated for 48 hrs by Annexin V-FITC/PI staining based flow cytometry
MCF7 [4] = experiment: Induction of necrosis in human MCF7 cells at IC50 concentration incubated for 48 hrs by Annexin V-FITC/PI staining based flow cytometry
HCT-116 [5] = experiment: Induction of necrosis in human HCT-116 cells at IC50 concentration incubated for 48 hrs by Annexin V-FITC/PI staining based flow cytometry
HepG2 [6] = experiment: Induction of late apoptosis in human HepG2 cells at IC50 concentration incubated for 48 hrs by Annexin V-FITC/PI staining based flow cytometry
HCT-116 [7] = experiment: Induction of apoptosis in human HCT-116 cells at IC50 concentration incubated for 48 hrs by Annexin V-FITC/PI staining based flow cytometry
MDA-MB-231 [8] = experiment: Induction of cell cycle arrest in human MDA-MB-231 cells assessed as accumulation of cells at G0/G1 phase incubated for 48 hrs by flow cytometry
MCF7 [9] = experiment: Induction of apoptosis in human MCF7 cells at IC50 concentration incubated for 48 hrs by Annexin V-FITC/PI staining based flow cytometry
HepG2 [10] = experiment: Induction of cell cycle arrest in human HepG2 cells assessed as decrease in accumulation of cells at S phase incubated for 48 hrs by flow cytometry
LoVo [11] = experiment: Induction of apoptosis in human LoVo cells at IC50 concentration incubated for 48 hrs by Annexin V-FITC/PI staining based flow cytometry
MCF7 [12] = experiment: Induction of cell cycle arrest in human MCF7 cells assessed as accumulation of cells at G0/G1 phase incubated for 48 hrs by flow cytometry
LoVo [13] = experiment: Induction of necrosis in human LoVo cells at IC50 concentration incubated for 48 hrs by Annexin V-FITC/PI staining based flow cytometry
Hep 3B2 [14] = experiment: Induction of early apoptosis in human Hep3B cells at IC50 concentration incubated for 48 hrs by Annexin V-FITC/PI staining based flow cytometry
Hep 3B2 [15] = experiment: Induction of necrosis in human Hep3B cells at IC50 concentration incubated for 48 hrs by Annexin V-FITC/PI staining based flow cytometry
Hep 3B2 [16] = experiment: Induction of cell cycle arrest in human Hep3B cells assessed as decrease in accumulation of cells at G0/G1 phase incubated for 48 hrs by flow cytometry
Hep 3B2 [17] = experiment: Induction of cell cycle arrest in human Hep3B cells assessed as decrease in accumulation of cells at S phase incubated for 48 hrs by flow cytometry
Hep 3B2 [18] = experiment: Induction of cell cycle arrest in human Hep3B cells assessed as increase in accumulation of cells at G2/M phase incubated for 48 hrs by flow cytometry
LoVo [19] = experiment: Induction of cell cycle arrest in human LoVo cells assessed as decrease in accumulation of cells at G2/M phase incubated for 48 hrs by flow cytometry
MDA-MB-231 [20] = experiment: Induction of cell cycle arrest in human MDA-MB-231 cells assessed as accumulation of cells at S phase incubated for 48 hrs by flow cytometry
MDA-MB-231 [21] = experiment: Induction of apoptosis in human MDA-MB-231 cells at IC50 concentration incubated for 48 hrs by Annexin V-FITC/PI staining based flow cytometry
MDA-MB-231 [22] = experiment: Induction of necrosis in human MDA-MB-231 cells at IC50 concentration incubated for 48 hrs by Annexin V-FITC/PI staining based flow cytometry
LoVo [23] = experiment: Induction of cell cycle arrest in human LoVo cells assessed as accumulation of cells at S phase incubated for 48 hrs by flow cytometry
MDA-MB-231 [24] = experiment: Induction of cell cycle arrest in human MDA-MB-231 cells assessed as decrease in accumulation of cells at G2/M phase incubated for 48 hrs by flow cytometry
DU-145 [25] = experiment: Induction of cell cycle arrest in human DU-145 cells assessed as accumulation of cells at G2/M phase incubated for 48 hrs by flow cytometry
DU-145 [26] = experiment: Induction of necrosis in human DU-145 cells at IC50 concentration incubated for 48 hrs by Annexin V-FITC/PI staining based flow cytometry
DU-145 [27] = experiment: Induction of cell cycle arrest in human DU-145 cells assessed as accumulation of cells at S phase incubated for 48 hrs by flow cytometry
DU-145 [28] = experiment: Induction of apoptosis in human DU-145 cells at IC50 concentration incubated for 48 hrs by Annexin V-FITC/PI staining based flow cytometry
PC-3 [29] = experiment: Induction of apoptosis in human PC-3 cells at IC50 concentration incubated for 48 hrs by Annexin V-FITC/PI staining based flow cytometry
PC-3 [30] = experiment: Induction of cell cycle arrest in human PC-3 cells assessed as accumulation of cells at S phase incubated for 48 hrs by flow cytometry
PC-3 [31] = experiment: Induction of necrosis in human PC-3 cells at IC50 concentration incubated for 48 hrs by Annexin V-FITC/PI staining based flow cytometry

Measured: Activity

COc1ccc([C@H]2c3c(/C=C/c4ccc(O)cc4)cc(OC)c(C)c3O[C@@H]3Oc4cc(O)cc(O)c4C(=O)[C@@H]32)cc1
active: LoVo [1] | HCT-116 [2] | HepG2 [3] | MCF7 [4] | HCT-116 [5] | HepG2 [6] | HCT-116 [7] | MDA-MB-231 [8] | MCF7 [9] | HepG2 [10] | LoVo [11] | MCF7 [12] | LoVo [13]

O=C1/C(=C/c2ccc(O)cc2)COc2cc(O)cc(O)c21
active: Hep 3B2 [14] | Hep 3B2 [15] | Hep 3B2 [16] | Hep 3B2 [17] | Hep 3B2 [18]

COc1cc(O)cc(/C=C/c2ccc(O)cc2)c1
active: LoVo [19] | MDA-MB-231 [20] | MDA-MB-231 [21] | MDA-MB-231 [22] | LoVo [23] | MDA-MB-231 [24] | LoVo [11] | LoVo [13]

COc1cc(/C=C/c2ccc(O)cc2)cc(O)c1C
active: DU-145 [25] | DU-145 [26] | DU-145 [27] | DU-145 [28] | PC-3 [29] | LoVo [23] | PC-3 [30] | LoVo [11] | PC-3 [31] | LoVo [13]
